Test results published in patent publication US6962909B2, “Treatment of neovascularization disorders with squalimine” (Genaera Corporation, priority 1995, dated 2005).
In brackets after ≈: the same amount, converted by molar mass.

Key:
Human melanoma WM 1167 = assay: Cytotoxic activity against cancer cells
[1] = test system: vitelline capillaries of 3- to 5-day chick embryo; assay: Chick embryo vitelline capillary regression assay; format: in vivo; parameters: key to Vascular reactivity (capillary regression): + = Vascular reactivity; 0 = No vascular reactivity; +/− = Equivocal reactivity
Method in brief: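 Compounds were applied onto the 3- to 5-day embryo in 0.1 ml 15% Ficol 400 in PBS. Vascular regression was assessed visually after 60 min, scoring capillary constriction and pinching-off into enclosed blood-island-like sacs.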

Lewis lung carcinoma = assay: In vitro cell growth inhibition (assay of Baker et al.); format: cell-based
Source text: As set forth in Table 7 below, all malignant tumors evaluated in tissue culture, endothelial cells and vascular smooth muscle cells were sensitive to inhibition. Thus, compound 1436 has application in the control of growth factor dependent proliferation of many types of tissue.

[2] = test system: human microvascular cells; assay: Endothelial cord formation assay; format: cell-based; note: key: + = Inhibition of angiogenesis; − = No inhibition of angiogenesis; T = Toxic; *= cell rounding @ 10 µg/ml
Method in brief: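 Human microvascular endothelial cells plated on collagen matrix with VEGF and basic fibroblast growth factor; compound effect assessed on resulting cord-like tubular structures.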

[3] = test system: Stage 59-60 Xenopus tadpoles; assay: Xenopus tadpole assay; format: in vivo, Xenopus laevis; conditions: 10 μg/ml in water
Method in brief: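 Stage 59-60 Xenopus laevis tadpoles placed in compound dissolved in distilled water at 10 μg/ml, allowing oral uptake and systemic exposure. After 1 hour, capillary blood-flow occlusion in the tail was scored by inverted microscopy (~100×) plus gross observation.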

Compound: CC(C)CCCC(C)[C@H]1CCC2C3CC[C@H]4C[C@@H](NCCCNCCCCNCCCN)CC[C@]4(C)C3CC[C@@]21C (stereo partly drawn) [Compound 353]
- Mechanism of cell death in exposed cells (Human melanoma WM 1167): apoptotic cell death has been induced
- IC50 (Human melanoma WM 1167; Homo sapiens): 3 µg/mL (≈ 5.24 µM)
- Vascular reactivity (capillary regression) ([1]; 1 μg applied, 60 minutes): +/−
- Effect on chick embryo capillary bed ([1]; in vivo): no effect on the chick embryo capillary bed
- IC50 (Lewis lung carcinoma): 1.9 µg/mL (≈ 3.32 µM)
- Effect on endothelial cord formation ([2]; 0.1 μg/ml): +
- Effect on endothelial cord formation ([2]; 1.0 μg/ml): +
- Effect on endothelial cord formation ([2]; 10.0 μg/ml): +
- Pharmacological category in tadpole assay (similarity to a reference steroid) [3]: effects like those produced by compound 1436
